Earlier results on 1 molecule are cited in US20220031715A1, “COMPOSITIONS AND METHODS FOR ENHANCING WOUND HEALING” (priority 2018, published 2022).

Data set [1] concerns NR1I2/PAR, NR1i2/PXR, ESR1, NFE2L2/HEBP1, NR1 L3/CAR, and TSHR. Particulars: at least six receptors.
In data set [2] the test system is mammals.

As for `O=P(Oc1ccccc1)(Oc1ccccc1)Oc1ccccc1` [TPP, triphenyl phosphate], the “activation of hormone receptors” value in data set [1] is on record as “activates”. For the same molecule, in data set [2], the toxicity result is “very low toxicity”.
